Assay results published in patent publication US20230365563A1, “QUINAZOLINE COMPOUND AND APPLICATION THEREOF” (SHANGHAI PHARMACEUTICALS HOLDING CO., LTD., priority 2020, published 2023).
Where a name gives a salt, the structure may show the parent alone.

Legend:
KRAS_WT and SOS1 = target: T1, KRAS_WT and SOS1 (Homo sapiens, UniProt P01116); experiment: Inhibition of KRAS_WT/SOS1 binding (Cisbio binding kit, 665/615 ratio), Effect Embodiment C; conditions: read-out: GTP-KRAS-WT:SOS1 IC50
T1 construct: purchased
Outline: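 Compounds tested as 3-fold, 11-point dilutions in duplicate at 1% DMSO final against the KRAS_WT/SOS1 binding system. IC50 derived by nonlinear regression fit.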

KRAS-G12D and SOS1 = target: T2, KRAS-G12D and SOS1 (Homo sapiens, UniProt P01116, G12D); experiment: Inhibition of KRAS-G12D/SOS1 binding (Cisbio binding kit, 665/615 ratio), Effect Embodiment A; conditions: read-out: GTP-KRAS-G12D:SOS1 IC50
T2 construct: purchased
Outline: (§1)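 Test compounds were serially diluted 3-fold from the storage solution over 11 points and dispensed in duplicate wells at 1% final DMSO.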

KRAS_G12D and cRAF = target: T3, KRAS_G12D and cRAF (Homo sapiens, UniProt P01116, G12D); experiment: Inhibition of KRAS_G12D/cRAF binding (Cisbio binding kit, 665/615 ratio), Effect Embodiment B; conditions: read-out: GTP-KRAS-G12D:CRAF IC50
T3 construct: purchased
Outline: as §1

T1 sequence (P01116 1-188 isoform P01116-2): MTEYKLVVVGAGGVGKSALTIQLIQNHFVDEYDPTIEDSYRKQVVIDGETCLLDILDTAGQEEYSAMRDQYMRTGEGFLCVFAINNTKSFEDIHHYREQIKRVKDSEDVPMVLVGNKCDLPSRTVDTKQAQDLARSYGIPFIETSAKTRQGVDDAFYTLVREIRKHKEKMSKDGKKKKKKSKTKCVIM
T3 sequence (P01116 1-188 isoform P01116-2 G12D): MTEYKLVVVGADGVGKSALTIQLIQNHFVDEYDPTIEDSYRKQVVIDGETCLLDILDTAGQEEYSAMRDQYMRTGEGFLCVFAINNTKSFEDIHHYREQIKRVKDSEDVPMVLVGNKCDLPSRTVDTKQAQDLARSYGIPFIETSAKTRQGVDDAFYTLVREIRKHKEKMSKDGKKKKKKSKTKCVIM
T2 sequence (P01116 1-188 isoform P01116-2 G12D): as above

| Compound | IC50 (KRAS_WT and SOS1) [nM] | IC50 (KRAS-G12D and SOS1) [nM] | IC50 (KRAS_G12D and cRAF) [nM] |
| --- | --- | --- | --- |
| Oc1cc(-c2c(Cl)cc3c(N4CC5CCC(C4)N5)nc(OCC(F)(F)CN4CCCC4)nc3c2F)c2ccccc2c1 (single isomer, unassigned) [Compound 107, 4-((S or R)-4-((1R,5S)-3,8-diazabicyclo[3.2.1]octan-3-yl)-6-chloro-2-(2,2-difluoro-3-(pyrrolidin-1-yl)propoxy)-8-fluoroquinazolin-7-yl)naphthalen-2-ol dihydrochloride] | 3490 | 47 | 160 |
| CCC(COc1nc(N2CC3CCC(C2)N3)c2cc(Cl)c(-c3cc(O)cc4ccccc34)c(F)c2n1)CN1C2CCC1COC2 (single isomer, unassigned) [Compound 201a, (4S or 4R)-4-(2-((2R or 2S)-2-(3-oxa-8-azabicyclo[3.2.1]octan-8-ylmethyl)butoxy)-4-((1R,5S)-3,8-diazabicyclo[3.2.1]octan-3-yl)-6-chloro-8-fluoroquinazolin-7-yl)naphthalen-2-ol formate] | 1040 | 29 | 23.2 |
| C[C@@H](COc1nc(N2CC3CCC(C2)N3)c2cc(Cl)c(-c3cc(O)cc4ccccc34)c(F)c2n1)CN1C2CC3CC1CC(C2)O3 (single isomer, unassigned) [Compound 230, 4-((S or R)-2-((R)-3-((1R,3R,5R,7R)-2-oxa-6-azadamantan-6-yl)-2-methylpropoxy)-4-((1R,5S)-3,8-diazabicyclo[3.2.1]octan-3-yl)-6-chloro-8-fluoroquinazolin-7-yl)naphthalen-2-ol diformate] | 626 | 15.7 | 28.1 |
| C[C@@H]1C[C@@H](COc2nc(N3CC4CCC(C3)N4)c3cc(Cl)c(-c4cc(O)cc5ccccc45)c(F)c3n2)N(C)C1 (single isomer, unassigned) [Compound 171, (R or S)-4-(4-((1R,5S)-3,8-diazabicyclo[3.2.1]octan-3-yl)-6-chloro-2-((2S,4R)-1.4-dimethylpyrrolidin-2-yl)methoxy)-8-fluoroquinazolin-7-yl)naphthalen-2-ol dihydrochloride] | 395 | 24.8 | 60.4 |

Second part, the compound after the results:

| IC50 (KRAS_WT and SOS1) [nM] | IC50 (KRAS-G12D and SOS1) [nM] | IC50 (KRAS_G12D and cRAF) [nM] | Compound |
| --- | --- | --- | --- |
| 731 | 13.7 | 23.3 | C[C@@H](COc1nc(N2CC3CCC(C2)N3)c2cc(Cl)c(-c3cc(O)cc4ccccc34)c(F)c2n1)CN1CCO[C@H](C)C1 (single isomer, unassigned) [Compound 242, 4-((S or R)-4-((1R,5S)-3,8-diazacyclo[3.2.1]octan-3-yl)-6-chloro-8-fluoro-2-((R)-2-methyl-3-((R)-2-methylmorpholinyl)propoxy)quinazolin-7-yl)naphthalen-2-ol formate] |
| 1820 | 57.8 | 170 | C[C@H]1COCCN1CCCOc1nc(N2C[C@H]3CC[C@@H](C2)N3)c2cc(Cl)c(-c3cc(O)cc4ccccc34)c(F)c2n1 (single isomer, unassigned) [Compound 174, (R or S)-4-(4-((1R,5S)-3,8-diazabicyclo[3.2.1]octan-3-yl)-6-chloro-8-fluoro-2-(3-((S)-3-methylmorpholinyl)propoxy)quinazolin-7-yl)naphthalen-2-ol diformate] |
| 2300 | 56.3 | 212 | C[C@@H]1CCCN1CCCOc1nc(N2CC3CCC(C2)N3)c2cc(Cl)c(-c3cc(O)cc4ccccc34)c(F)c2n1 (single isomer, unassigned) [Compound 108a, 4-((S or R)-4-((1R,5S)-3,8-diazabicyclo[3.2.1]octan-3-yl)-6-chloro-8-fluoro-2-(3-((R)-2-methylpyrrolidin-1-yl)propoxy)quinazolin-7-yl)naphthalen-2-ol dihydrochloride] |
